Measured values from patent publication US20150296773A1, “COMPOSITIONS COMPRISING A […] MIXTURE AND AN INSECTICIDE” (Bayer CropScience AG, priority 2012, published 2015).

Key:
Format in all cases: in vivo
Phaedon cochleariae = Phaedon cochleariae spray test (Example D, Chinese cabbage leaf-disks); conditions: mortality after 6 d
Protocol: Phaedon cochleariae—Spray Test
Solvent: 78.0 parts by weight of acetone • • 1.5 parts by weight of dimethylformamide Emulsifier: 0.5 parts by weight of alkylaryl polyglycolether
(§1) To produce a suitable preparation of active compound, 1 part by weight of active compound is mixed with the stated amount of solvent and emulsifier, and the concentrate is diluted with emulsifier-containing water to the desired concentration. To produce a suitable preparation of a spore suspension the spores are diluted with emulsifier-containing water to the desired concentration.
Chinese cabbage (Brassica pekinensis) leaf-disks are sprayed with a preparation of the active ingredient of the desired concentration. Once dry, the leaf disks are infested with mustard beetle larvae (Phaedon cochleariae).
After the specified period of time, mortality in % is determined 100% means all beetle larvae have been killed and 0% means none of the beetle larvae have been killed. The mortality values determined thus are recalculated using the Colby-formula (see above).

Myzus persicae [1] = experiment: Myzus persicae spray test (Example G, Chinese cabbage leaf-disks); conditions: for Efficacy in % after 6 d: mortality after 6 d; for Efficacy in % after 1 d: mortality after 1 d
Protocol: (§2) Myzus persicae—Spray Test
(§3) Solvent: 78.0 parts by weight acetone • 1.5 parts by weight dimethylformamide Emulsifier: 0.5 parts by weight alkylarylpolyglycolether
as §1
Chinese cabbage (Brassica pekinensis) leaf—disks infected with all instars of the green peach aphid (Myzus persicae) are sprayed with a preparation of the active ingredient of the desired concentration.
After the specified period of time, mortality in % is determined 100% means all aphids have been killed; 0% means none of the aphids have been killed. The mortality values determined thus are recalculated using the Colby-formula (see above).

Aphis gossypii = Aphis gossypii spray test (Example B, cotton leaves); conditions: mortality after 1 d
Protocol: Aphis gossypii—Spray Test
(§4) Solvent: 7 parts by weight of dimethylformamide Emulsifier: 2 parts by weight of alkylaryl polyglycolether
(§5) To produce a suitable preparation of active compound, 1 part by weight of active compound is mixed with the stated amount of solvent and emulsifier, and the concentrate is diluted with emulsifier-containing water to the desired concentration. To produce a suitable preparation of a spore suspension the spores are diluted with emulsifier-containing water to the desired concentration Ammonium salt and/or penetration enhancer in a dosage of 1000 ppm are added to the desired concentration, if necessary.
Cotton leaves (Gossypium hirsutum) which are heavily infested by the cotton aphid (Aphis gossypii) are treated by being sprayed with the preparation of the active compound of the desired concentration.
After the specified period of time, the mortality in % is determined 100% means all the aphids have been killed; 0% means none of the aphids have been killed. The mortality values determined thus are recalculated using the Colby-formula (see above).

Myzus persicae [2] = experiment: Myzus persicae spray test (Example A, pepper leaves); conditions: for Efficacy in % after 5 d: mortality after 5 d; for Efficacy in % after 4 d: mortality after 4 d
Protocol: as §2, §4, §5
Pepper leaves (Capsicum annuum) which are heavily infested by the green peach aphid (Myzus persicae) are treated by being sprayed with the preparation of the active compound of the desired concentration.
After the specified period of time, mortality in % is determined 100% means all the aphids have been killed; 0% means none of the aphids have been killed. The mortality values determined thus are recalculated using the Colby-formula (see above).

Spodoptera frugiperda [3] = experiment: Spodoptera frugiperda test (SPODFR) (Example F, maize leaves); conditions: 0.075 g ai/ha; mortality after 3 d
Protocol: Spodoptera frugiperda—Test (SPODFR)
Solvent: 7 parts by weight of dimethylformamide Emulsifier: 1 part by weight of alkylaryl polyglycolether
(§6) To produce a suitable preparation of active compound, 1 part by weight of active compound is mixed with the stated amount of solvent and emulsifier, and the concentrate is diluted with emulsifier-containing water to the desired concentration. To produce a suitable preparation of a spore suspension the spores are diluted with emulsifier-containing water to the desired concentration Ammonium salt and/or penetration enhancer in a dosage of 1000 ppm are added to the desired concentration if necessary.
Maize leaves (Zea mais) are treated by being sprayed with the preparation of the active compound of the desired concentration and are infested with caterpillars of the fall army worm (Spodoptera frugiperda). The mortality values determined thus are recalculated using the Colby-formula (see above).
After the specified period of time, mortality in % is determined 100% means all the caterpillars have been killed; 0% means none of the caterpillars have been killed.

Tetranychus urticae [4] = experiment: Tetranychus urticae spray test, OP-resistant (Example H, French beans); conditions: for Efficacy in % after 6 d: mortality after 6 d; for Efficacy in % after 2 d: mortality after 2 d
Protocol: (§7) Tetranychus urticae—Spray Test, OP-Resistant
as §3, §1
French beans (Phaseolus vulgaris) which are heavily infested with all stages of the two spotted spidermite (Tetranychus urticae), are sprayed with a preparation of the active ingredient of the desired concentration.
After the specified period of time, mortality in % is determined 100% means all spider mites have been killed and 0% means none of the spider mites have been killed. The mortality values determined thus are recalculated using the Colby-formula (see above).

Spodoptera frugiperda [5] = experiment: Spodoptera frugiperda spray test (Example E, maize leaf sections); conditions: 0.032 g ai/ha; mortality after 6 d
Protocol: Spodoptera frugiperda—Spray Test
as §3
To produce a suitable preparation of the active compound, 1 part by weight of active compound is mixed with the stated amount of solvent and emulsifier, and the concentrate is diluted with emulsifier-containing water to the desired concentration. To produce a suitable preparation of spore suspension the spores are diluted with emulsifier-containing water to the desired concentration.
Maize (Zea mais) leaf sections are sprayed with a preparation of the active ingredient of the desired concentration. Once dry, the leaf sections are infested with fall armyworm larvae (Spodoptera frugiperda).
After the specified period of time, mortality in % is determined 100% means all caterpillars have been killed and 0% means none of the caterpillars have been killed. The mortality values determined thus are recalculated using the Colby-formula (see above).

Tetranychus urticae [6] = experiment: Tetranychus urticae spray test, OP-resistant (Example C, bean plants); conditions: 0.8 ppm; mortality after 6 d
Protocol: as §7, §4, §6
Bean plants (Phaseolus vulgaris) which are heavily infested with all stages of the two-spotted spider mite (Tetranychus urticae) are treated by being sprayed with the preparation of the active compound of the desired concentration.
After the specified period of time, mortality in % is determined 100% means all the spider mites have been killed; 0% means none of the spider mites have been killed. The mortality values determined thus are recalculated using the Colby-formula (see above).

CNC(=O)c1cc(C#N)cc(C)c1NC(=O)c1cc(Br)nn1-c1ncccc1Cl [Cyantraniliprole]
Efficacy in % after 6 d (Phaedon cochleariae; 0.8 g ai/ha): 0%
Efficacy in % after 6 d (Myzus persicae [1]; 0.8 g ai/ha): 0%

O=C1C=C(N(Cc2ccc(Cl)nc2)CC(F)F)CO1 [Flupyradifurone]
Efficacy in % after 6 d (Myzus persicae [1]; 0.8 g ai/ha): 0%

N#C/N=C1\SCCN1Cc1ccc(Cl)nc1 [Thiacloprid]
Efficacy in % after 6 d (Myzus persicae [1]; 0.16 g ai/ha): 0%

O=[N+]([O-])NC1=NCCN1Cc1ccc(Cl)nc1 [Imidacloprid]
Efficacy in % after 1 d (Myzus persicae [1]; 0.16 g ai/ha): 70%

CNC(=O)c1cc(Cl)cc(C)c1NC(=O)c1cc(Br)nn1-c1ncccc1Cl [Chlorantraniliprole]
Efficacy in % after 1 d (Aphis gossypii; 4 ppm): 10%
Efficacy in % after 1 d (Aphis gossypii; 8 ppm): 50%
Efficacy in % after 5 d (Myzus persicae [2]; 8 ppm): 60%

CN1COCN(Cc2cnc(Cl)s2)/C1=N\[N+](=O)[O-] [Thiamethoxam]
Efficacy in % after 1 d (Myzus persicae [1]; 0.8 g ai/ha): 70%

Cc1cc(C(F)(C(F)(F)F)C(F)(F)F)ccc1NC(=O)c1cccc(I)c1C(=O)NC(C)(C)CS(C)(=O)=O [Flubendiamide]
Efficacy in % after 3 d (Spodoptera frugiperda [3]): 18%

CNC(=O)Oc1cc(C)c(SC)c(C)c1 [Methiocarb]
Efficacy in % after 6 d (Myzus persicae [1]; 500 g ai/ha): 0%
Efficacy in % after 6 d (Tetranychus urticae [4]; 100 g ai/ha): 20%

Spinosad
Efficacy in % after 2 d (Tetranychus urticae [4]; 4 g ai/ha): 0%

N#Cc1nn(-c2c(Cl)cc(C(F)(F)F)cc2Cl)c(N)c1[S+]([O-])C(F)(F)F (centres unmarked) [Fipronil]
Efficacy in % after 6 d (Myzus persicae [1]; 100 g ai/ha): 0%
Efficacy in % after 6 d (Tetranychus urticae [4]; 100 g ai/ha): 0%

CN/C(=N\[N+](=O)[O-])NCc1cnc(Cl)s1 [Clothianidin]
Efficacy in % after 1 d (Aphis gossypii; 0.25 ppm): 3%
Efficacy in % after 1 d (Aphis gossypii; 0.5 ppm): 8%
Efficacy in % after 6 d (Phaedon cochleariae; 20 g ai/ha): 50%
Efficacy in % after 4 d (Myzus persicae [2]; 0.125 ppm): 3%
Efficacy in % after 4 d (Myzus persicae [2]; 0.25 ppm): 10%
Efficacy in % after 4 d (Myzus persicae [2]; 0.5 ppm): 65%

Cc1cc(C)c(C2=C(OC(=O)CC(C)(C)C)C3(CCCC3)OC2=O)c(C)c1 [Spiromesifen]
Efficacy in % after 6 d (Tetranychus urticae [4]; 0.8 g ai/ha): 30%

CS/C(C)=N\OC(=O)N(C)SN(C)C(=O)O/N=C(\C)SC [Thiodicarb]
Efficacy in % after 6 d (Myzus persicae [1]; 100 g ai/ha): 0%

CC(c1ccc(C(F)(F)F)nc1)S(C)(=O)=NC#N (centres unmarked) [Sulfoxaflor]
Efficacy in % after 6 d (Myzus persicae [1]; 0.16 g ai/ha): 70%

CC1(C)[C@H](C(=O)O[C@H](C#N)c2cccc(Oc3ccccc3)c2)[C@@H]1C=C(Br)Br [Deltamethrin]
Efficacy in % after 6 d (Tetranychus urticae [4]; 4 g ai/ha): 0%

CCOC(=O)OC1=C(c2cc(C)ccc2C)C(=O)N[C@]12CC[C@@H](OC)CC2 [Spirotetramat]
Efficacy in % after 6 d (Myzus persicae [1]; 0.8 g ai/ha): 0%
Efficacy in % after 6 d (Tetranychus urticae [4]; 0.8 g ai/ha): 0%

Cc1c(F)c(F)c(COC(=O)[C@@H]2[C@H](/C=C(\Cl)C(F)(F)F)C2(C)C)c(F)c1F (racemic) [Tefluthrin]
Efficacy in % after 6 d (Phaedon cochleariae; 10 g ai/ha): 0%

Spinetoram
Efficacy in % after 6 d (Spodoptera frugiperda [5]): 33%
Efficacy in % after 2 d (Tetranychus urticae [4]; 4 g ai/ha): 20%

Abamectin
Efficacy in % after 5 d (Myzus persicae [2]; 2 ppm): 30%

CC1(C)C(C=C(Cl)Cl)C1C(=O)OC(C#N)c1ccc(F)c(Oc2ccccc2)c1 (stereo not drawn) [β-Cyfluthrin, beta-Cyfluthrin]
Efficacy in % after 6 d (Myzus persicae [1]; 0.16 g ai/ha): 0%
Efficacy in % after 6 d (Tetranychus urticae [4]; 4 g ai/ha): 0%

Cc1cc(F)c(-n2nc(C(F)(F)F)nc2N)cc1[S+]([O-])CC(F)(F)F (centres unmarked) [I277, 1-{2-fluoro-4-methyl-5-[(2,2,2-trifluorethyl)sulfinyl]phenyl}-3-(trifluoromethyl)-1H-1,2,4-triazol-5-amine]
Efficacy in % after 6 d (Tetranychus urticae [6]): 25%
Efficacy in % after 6 d (Tetranychus urticae [4]; 4 g ai/ha): 70%
